The results in this text go back to patent US20070219234A1, “Thienopyridine Derivatives” (priority 2004, published 2007).

Data set [1] concerns cells from femurs and tibias of ICR mice. Briefly: Osteoclast formation suppression test (TRAP activity). As to conditions: 20 nM active form vitamin D3; compounds 0.01-0.3 μg/ml; culturing for five days. It counts as cell-based, mouse. As to the method: 18 day-old ICR mice were purchased from Japan SLC, Inc. and used in the following experiments. The mice were sacrificed by cervical dislocation and the right and left femurs and tibias were extracted. After the tissue around the extracted femurs and tibias was removed, they were finely minced with scissors. 10 mL of 15%-FBS-αMEM was added to the minced femurs and tibias and the supernatant was collected after agitation for one minute and filtering with a cell strainer (Becton Dickinson company). A cell suspension containing 500,000 cells/mL was prepared with 15%-FBS-αMEM. The cell suspension was dispensed to the wells of a 96 well microplate (Falcon company) in an amount of 100 μL per well so as to achieve 50,000 cells/well and cultured for 24 hours. Active form vitamin D3 (Sigma company, Cat.No.D1530) was dispensed to the wells in final concentrations of 20 nM. Compounds were dispensed to the wells in final concentrations of 0.01, 0.03, 0.1, 0.3 μg/ml except the following control group. DMSO was dispensed to the wells of the control group in a final concentration of 0.1% (v/v). Tartrate-resistant acid phosphatase (TRAP) activity was measured for each group after culturing for five days.
The measurement of TRAP activity was performed as follows. That is, after the whole medium was removed from each well of the culturing plate, each well was washed twice by dispensing and removing 100 μL of Dulbecco's phosphate buffer (available from GIBCO BRL Cat. No. 14190-144). After retaining with a mixture of acetone-ethanol (1:1) for one minute, the retention liquid was removed and the wells were stained at 37° C. with Leukocyte acid phosphatase kit (Sigma company, Cat. No. 387-A) for 30 minutes. The staining solution was removed, then 100 μL of 10% sodium dodecylsulfate (Wako Pure Chemical Industries, Ltd. Cat. No. 191-07145) was dispensed and the mixture was stirred for five minutes, and then absorbance was measured using a microplate reader (Bio-rad company). TRAP activity decrease rate (%) in the group blended with test compounds was calculated assuming the observed value of the control group of each plate to be 100% and evaluated as the osteoclast formation suppression activity.

Another data set concerns ST2 cells. Briefly: Osteoblast differentiation test (alkaline phosphatase activity). Conditions: Mus musculus, ST-2, 96 h; at 0.03 μg/mL; culturing for four days; control group (0.1% DMSO) = 100%; read-out: alkaline phosphatase activity increase rate. It counts as cell-based. On the procedure:
ST2 cells (available from Institute of Physical and Chemical Research) which are stroma cells derived from mouse marrow were used. In this test, α-MEM medium (available from GIBCO BRL Cat. No. 10370-021) with which 10% (v/v) inactivated fetal bovine serum (available from Hyclone Company, FBS) and 1% (v/v) Penicillin-Streptomycin, Liquid (available from GIBCO BRL Cat. No. 15140-122) are mixed (hereinbelow abbreviated as 10% -FBS-αMEM) was used. Every culture in this test was conducted in a CO2 incubator (37° C., 95% humidity, 5% CO2).
The cells mentioned above were harvested with 2 mL of 0.25% trypsin solution (available from GIBCO BRL Cat. No. 15050-065) and after they were dispersed by adding 10 mL of 10% -FBS-αMEM, the cells were collected by centrifugal separation (25° C., 800 rpm, 5 minutes). A cell suspension containing 40,000 cells/mL was prepared from the collected cells using 10% -FBS-αMEM.
The cell suspension was dispensed to the wells of a 96 well microplate (Falcon company) in an amount of 100 μL per well so as to achieve 4,000 cells/well and cultured for 24 hours. Compounds were dispensed to the wells in final concentrations of 0.01, 0.03, 0.1, 0.3 μg/ml except the following control group. DMSO was dispensed to the wells of the control group in a final concentration of 0.1% (v/v). Alkaline phosphatase (ALP) activity was measured for each group after culturing for four days.
The measurement of ALP activity was performed as follows. That is, after the whole medium was removed from each well of the culturing plate, each well was washed twice by dispensing and removing 100 μL of Dulbecco's phosphate buffer (available from GIBCO BRL Cat. No. 14190-144). Cell lysing solution containing 10 mM MgCl2 and 2%(v/v) TritonX-100 (Sigma company) was prepared and 50 μL/well of the cell lysing solution was dispensed and the mixture was stirred at room temperature for five minutes. An ALP substrate solution containing 50 mM of diethanolamine (Wako Pure Chemical Industries, Ltd. Cat. No. 099-03112) and 20 mM of […] (Wako Pure Chemical Industries, Ltd. Cat. No. 147-02343) was prepared and 50 μL/well of the ALP substrate solution was dispensed and after allowing to stand at room temperature for 10 minutes, absorbance was measured using a microplate reader (Bio-rad company). Alkaline phosphatase activity increase rate (%) in the group blended with test compounds was calculated assuming the observed value of the control group of each plate to be 100% and evaluated as the osteoblast differentiation promoting activity.

In data set [2] the test system is female F344 rats. Briefly: Effect on fracture healing. It counts as in vivo, rat. Conditions: orally once per day, six days a week, 39 days. On the procedure:
12 week-old female F344 rats were purchased from Charles River Laboratories and used in the following experiment. An operation for fracturing bone was performed following a method of Li et al. (J. Bone Miner. Res 1999, 14: 969-979) under ketamine xylazine anesthesia. From the next day of the operation, 0.5% carboxymethyl cellulose sodium salt solution (Wako Pure Chemical Industries, Ltd. Cat. No. 039-01335) in which a test compound was suspended was orally administered once per day and six days a week. 39 days after the administration started, the animals were painlessly killed by removing the whole blood from the aorta abdominalis under ketamine xylazine anesthesia and the femurs were extracted.
After soft tissue was removed from the extracted femurs, they were measured by bone strength measuring apparatus MZ-500D (Maruto Instrument Co., Ltd.). 3-point bending tests were performed and determined by maximum load.

Data set [3] has as its system female F344 rats. Briefly: Effect on bone mineral density (ovariectomy). As to conditions: 10 mg/kg, orally once per day, six days a week, six weeks. It counts as in vivo, rat. On the procedure:
8 week-old female F344 rats were purchased from Charles River Laboratories and used in the following experiment. After ketamine (12.5 mg/ml)/xylazine (2.5 mg/ml) liquid mixture was intraperitoneally injected in an amount of 0.25 ml/100 g for anesthesia, ovariectomy or a sham operation was performed. From the next day of the operation, 0.5% carboxymethyl cellulose sodium salt solution (Wako Pure Chemical Industries, Ltd. Cat. No.039-01335) in which a test compound was suspended was orally administered once per day and six days a week. Six weeks after the administration started, the animals were painlessly killed by removing the whole blood from the aorta abdominalis under ketamine xylazine anesthesia and the right and left femurs were extracted.
After soft tissue was removed from the extracted femurs, the bone density was measured by DXA device DCS-600R (Aloka Co., Ltd.). The bone density was determined for the whole femur as well as three evenly divided parts, i.e., proximal, midshaft and distal end.

Structures are written as SMILES. A value given as a limit tells only on which side of the number the result lay.

As for `Cc1cccc(N2CCCN(c3ccnc4sc(C(N)=O)c(N)c34)CC2)c1` [Example 65, 3-amino-4-[4-(3-toluyl)-1,4-diazepan-1-yl]thieno[2,3-b]pyridine-2-carboxamide], the melting point was in the range of 209 to 212 °C. For the same molecule, the “osteoclast formation suppression effect (TRAP activity decrease rate)” value in data set [1] is “excellent osteoclast formation suppression effect”. The activity at 0.03 µg/mL in the data set on ST2 cells is above 150%.

For `Cc1ccc(N2CCCN(c3ccnc4sc(C(N)=O)c(N)c34)CC2)nc1` [Example 106, 3-amino-4-[4-(5-methylpyridin-2-yl)-1,4-diazepan-1-yl]thieno[2,3-b]pyridine-2-carboxamide], the melting point lay in the range of 205 to 208 °C. For the same molecule, the “osteoclast formation suppression effect (TRAP activity decrease rate)” value in data set [1] is on record as “excellent osteoclast formation suppression effect”. Also, the activity at 0.03 µg/mL in the data set with ST2 cells was above 150%.

In the case of `NC(=O)c1sc2nccc(N3CCCN(c4ccccn4)CC3)c2c1N` [Example 99, 3-amino-4-(4-pyridin-2-yl-1,4-diazepan-1-yl)thieno[2,3-b]pyridine-2-carboxamide], the melting point was 237 to 239 °C. Further, the “osteoclast formation suppression effect (TRAP activity decrease rate)” value in data set [1] is reported as “excellent osteoclast formation suppression effect”. Also, in the data set with ST2 cells, the activity at 0.03 µg/mL was above 150%.

Regarding `NC(=O)c1sc2nccc(N3CCCN(c4ccc5c(c4)OCCO5)CC3)c2c1N` [Example 72, 3-amino-4-[4-(2,3-dihydro-1,4-benzodioxin-6-yl)-1,4-diazepan-1-yl]thieno[2,3-b]pyridine-2-carboxamide], the melting point lay in the range of 104 to 107 °C. Further, in data set [1], the “osteoclast formation suppression effect (TRAP activity decrease rate)” value was “excellent osteoclast formation suppression effect”. Besides, in the data set with ST2 cells, the activity at 0.03 µg/mL is above 150%.

Regarding `CCOc1ccc(N2CCCN(c3ccnc4sc(C(N)=O)c(N)c34)CC2)cc1` [Example 83, 3-amino-4-[4-(4-ethoxyphenyl)-1,4-diazepan-1-yl]thieno[2,3-b]pyridine-2-carboxamide], the melting point was in the range of 181 to 183 °C. Also, the “osteoclast formation suppression effect (TRAP activity decrease rate)” value in data set [1] is reported as “excellent osteoclast formation suppression effect”. Besides, in the data set with ST2 cells, the activity at 0.03 µg/mL is above 150%.

On to `C[S+]([O-])c1ccc(N2CCCN(c3ccnc4sc(C(N)=O)c(N)c34)CC2)cc1` (stereo not shown) [Example 66, 3-amino-4-{4-[4-(methylsulfinyl)phenyl]-1,4-diazepan-1-yl}thieno[2,3-b]pyridine-2-carboxamide], for which the melting point is 153 to 157 °C. Besides, the “osteoclast formation suppression effect (TRAP activity decrease rate)” value in data set [1] is recorded as “excellent osteoclast formation suppression effect”. The activity at 0.03 µg/mL in the data set on ST2 cells is above 150%.

On to `NC(=O)c1sc2nccc(N3CCCN(c4nccs4)CC3)c2c1N` [Example 97, 3-amino-4-[4-(1,3-thiazol-2-yl)-1,4-diazepan-1-yl]thieno[2,3-b]pyridine-2-carboxamide], for which the melting point was in the range of 243 to 245 °C. In addition, in data set [1], the “osteoclast formation suppression effect (TRAP activity decrease rate)” value is given as “excellent osteoclast formation suppression effect”. For the same molecule, in the data set on ST2 cells, the activity at 0.03 µg/mL is above 150%.

Consider `CC(=O)c1ccc(N2CCCN(c3ccnc4sc(C(N)=O)c(N)c34)CC2)cc1` [Example 94, 4-[4-(4-acetylphenyl)-1,4-diazepan-1-yl]-3-aminothieno [2,3-b]pyridine-2-carboxamide], for which the melting point is 279 to 282 °C (dec.). For the same molecule, in data set [1], the “osteoclast formation suppression effect (TRAP activity decrease rate)” value is given as “excellent osteoclast formation suppression effect”. In addition, in the data set with ST2 cells, the activity at 0.03 µg/mL is above 150%.

The molecule `COCC1CCCN(c2ccnc3sc(C(N)=O)c(N)c23)C1` (stereo not shown) [Example 101, 3-amino-4-[3-(methoxymethyl)piperidin-1-yl]thieno[2,3-b]pyridine-2-carboxamide] returned a melting point of 229 to 230 °C. The “osteoclast formation suppression effect (TRAP activity decrease rate)” value in data set [1] is on record as “excellent osteoclast formation suppression effect”. For the same molecule, in the data set with ST2 cells, the activity at 0.03 µg/mL was above 150%.

As to `NC(=O)c1sc2nccc(N3CCCN(c4ccccc4)CC3)c2c1N` [Example 57, 3-amino-4-(4-phenyl-1,4-diazepan-1-yl)thieno[2,3-b]pyridine-2-carboxamide], the “osteoclast formation suppression effect (TRAP activity decrease rate)” value in data set [1] is “excellent osteoclast formation suppression effect”. For the same molecule, in the data set with ST2 cells, the activity at 0.03 µg/mL was above 150%. Also, the “fracture healing (3-point bending test, maximum load)” value in the data set on female F344 rats [2] is reported as “significantly improved fracture healing”. In the data set on female F344 rats [3], the “bone density of femur (DXA)” value is on record as “significantly increased the bone density”.

As a reminder, the melting point is the temperature, or range, at which the solid turns liquid.
